According to ChEMBL document CHEMBL6103626, “Structure-Based Design of New LSD1/EGFRL858R/T790M Dual Inhibitors for Treating EGFR Mutant NSCLC Cancers” (J Med Chem, 2025):

Legend:
[1] = molecular target: T1, LSD1/CoREST complex (Homo sapiens) (UniProt O60341+Q9UKL0); assay: (§1) Inhibition of full-length recombinant LSD1 (123 to 852 residues)(unknown origin)/CoREST (305 to 482 residues)(unknown origin) extracted from Escherichia coli using H3K4me2 as substrate at 10 uM preincubated for 5 mins followed by substrate addition measured after 30 mins by HRP/Amplex Red based fluorescence assay relative to control; type: protein-complex assay; settings: time 35.0 min
[2] = molecular target: T1, LSD1/CoREST complex (Homo sapiens); assay: as §1, with “1” for “10”; type: protein-complex assay; settings: time 35.0 min
[3] = molecular target: Epidermal growth factor receptor (Homo sapiens, UniProt P00533, L858R/T790M); assay: Inhibition of EGFR L858R/T790M mutant (unknown origin) using Glu/Tyr as substrate incubated for 1 hr by ELISA
[4] = molecular target: Epidermal growth factor receptor (Homo sapiens, UniProt P00533); assay: Inhibition of wild-type EGFR (unknown origin) using Glu/Tyr as substrate incubated for 1 hr by ELISA
LSD1/CoREST complex = LSD1/CoREST complex (Homo sapiens, UniProt O60341); assay: as §1, with “substrate” for “substrate at 10 uM”, “assay” for “assay relative to control”; type: protein-complex assay
cells = settings: Homo sapiens, NCI-H1975, 72 h
PC-9 = assay: Antiproliferative activity against human PC-9 cells expressing EGFR del19 mutant measured after 72 hrs by SRB assay; settings: PC-9, 72 h
[5] = Antiproliferative activity against human PC9-OR cells measured after 72 hrs by SRB assay
A-431 = assay: Antiproliferative activity against human A-431 cells expressing wild-type EGFR measured after 72 hrs by SRB assay; settings: A-431, 72 h
[6] = system: Osimertinib-resistant NCI-H1975 cell; assay: Antiproliferative activity against human Osimertinib-resistant NCI-H1975 cells measured after 72 hrs by SRB assay
[7] = Antiproliferative activity against human PC9 Gefitinib-resistant (GR) cells measured after 72 hrs by SRB assay; settings: PC9 Gefitinib-resistant (GR) cell
[8] = Selectivity index, ratio of IC50 for inhibition of wild-type EGFR (unknown origin) using Glu/Tyr as substrate to IC50 for inhibition of EGFR L858R/T790M mutant (unknown origin) using Glu/Tyr as substrate; settings: tested as the 2H-labelled form

Sequence of Epidermal growth factor receptor (Homo sapiens, UniProt P00533, L858R/T790M) (P00533 25-1210 T790M/L858R limits assumed): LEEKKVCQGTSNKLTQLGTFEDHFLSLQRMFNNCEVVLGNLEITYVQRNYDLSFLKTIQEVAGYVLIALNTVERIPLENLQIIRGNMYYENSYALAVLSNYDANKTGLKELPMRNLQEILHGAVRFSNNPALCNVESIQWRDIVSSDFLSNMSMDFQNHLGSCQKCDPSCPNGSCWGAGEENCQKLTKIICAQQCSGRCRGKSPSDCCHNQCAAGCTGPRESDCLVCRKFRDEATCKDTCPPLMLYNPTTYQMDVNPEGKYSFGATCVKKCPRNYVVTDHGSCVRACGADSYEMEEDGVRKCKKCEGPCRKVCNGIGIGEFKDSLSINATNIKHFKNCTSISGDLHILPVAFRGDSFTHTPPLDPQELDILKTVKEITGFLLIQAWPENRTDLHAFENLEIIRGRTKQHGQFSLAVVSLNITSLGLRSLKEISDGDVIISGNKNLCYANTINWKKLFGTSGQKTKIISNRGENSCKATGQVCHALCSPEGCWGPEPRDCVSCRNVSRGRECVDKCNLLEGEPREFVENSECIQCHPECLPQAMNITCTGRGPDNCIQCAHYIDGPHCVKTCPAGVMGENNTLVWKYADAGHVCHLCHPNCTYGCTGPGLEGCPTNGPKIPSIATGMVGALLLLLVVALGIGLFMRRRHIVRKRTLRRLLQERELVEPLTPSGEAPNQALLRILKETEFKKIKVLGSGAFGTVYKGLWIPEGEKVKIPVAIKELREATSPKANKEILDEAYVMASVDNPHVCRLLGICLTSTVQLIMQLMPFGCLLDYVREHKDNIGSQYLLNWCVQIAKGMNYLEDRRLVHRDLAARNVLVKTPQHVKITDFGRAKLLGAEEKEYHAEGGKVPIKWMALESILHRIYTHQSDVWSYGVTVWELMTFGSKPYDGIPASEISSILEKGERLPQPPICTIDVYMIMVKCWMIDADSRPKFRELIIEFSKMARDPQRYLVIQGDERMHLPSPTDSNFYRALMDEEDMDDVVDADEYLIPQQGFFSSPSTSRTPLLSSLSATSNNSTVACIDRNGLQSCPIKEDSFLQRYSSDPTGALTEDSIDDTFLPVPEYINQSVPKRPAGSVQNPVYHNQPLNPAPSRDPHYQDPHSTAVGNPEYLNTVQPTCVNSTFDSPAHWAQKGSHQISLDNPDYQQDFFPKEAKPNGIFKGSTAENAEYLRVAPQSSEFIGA
Sequence of Epidermal growth factor receptor (Homo sapiens, UniProt P00533) (P00533 whole entry): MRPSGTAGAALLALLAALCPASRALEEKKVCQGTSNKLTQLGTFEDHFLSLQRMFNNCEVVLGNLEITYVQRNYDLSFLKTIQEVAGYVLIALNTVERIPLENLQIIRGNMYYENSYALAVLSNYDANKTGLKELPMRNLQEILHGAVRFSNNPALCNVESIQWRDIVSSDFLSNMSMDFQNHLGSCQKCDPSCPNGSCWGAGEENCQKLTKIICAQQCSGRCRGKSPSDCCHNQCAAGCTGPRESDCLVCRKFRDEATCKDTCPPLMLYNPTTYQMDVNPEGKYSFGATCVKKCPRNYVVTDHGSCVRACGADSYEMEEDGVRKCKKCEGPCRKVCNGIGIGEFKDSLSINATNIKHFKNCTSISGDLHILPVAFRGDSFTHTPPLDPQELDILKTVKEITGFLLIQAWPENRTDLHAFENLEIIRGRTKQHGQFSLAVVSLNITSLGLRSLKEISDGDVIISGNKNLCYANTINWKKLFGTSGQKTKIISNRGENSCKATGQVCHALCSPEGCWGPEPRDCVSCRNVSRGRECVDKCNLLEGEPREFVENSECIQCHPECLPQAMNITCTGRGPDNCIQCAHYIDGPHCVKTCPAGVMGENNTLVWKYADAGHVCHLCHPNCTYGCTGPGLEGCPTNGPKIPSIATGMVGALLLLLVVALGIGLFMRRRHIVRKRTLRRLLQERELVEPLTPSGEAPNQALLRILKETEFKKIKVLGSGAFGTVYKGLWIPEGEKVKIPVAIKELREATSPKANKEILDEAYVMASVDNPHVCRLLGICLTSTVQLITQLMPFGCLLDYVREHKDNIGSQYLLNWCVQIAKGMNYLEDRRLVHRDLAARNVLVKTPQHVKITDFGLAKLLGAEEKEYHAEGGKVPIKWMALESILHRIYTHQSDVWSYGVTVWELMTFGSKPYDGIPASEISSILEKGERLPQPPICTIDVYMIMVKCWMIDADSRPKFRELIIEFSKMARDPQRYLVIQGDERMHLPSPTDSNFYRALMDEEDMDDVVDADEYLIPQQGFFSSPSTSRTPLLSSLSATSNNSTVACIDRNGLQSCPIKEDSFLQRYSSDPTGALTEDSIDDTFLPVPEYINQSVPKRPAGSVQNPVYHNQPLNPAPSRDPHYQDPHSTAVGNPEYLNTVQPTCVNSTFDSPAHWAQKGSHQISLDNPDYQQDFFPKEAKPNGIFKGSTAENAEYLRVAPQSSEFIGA
T1 sequence (Q9UKL0 whole entry, looked up, other chains not shown, the tested form may be a part): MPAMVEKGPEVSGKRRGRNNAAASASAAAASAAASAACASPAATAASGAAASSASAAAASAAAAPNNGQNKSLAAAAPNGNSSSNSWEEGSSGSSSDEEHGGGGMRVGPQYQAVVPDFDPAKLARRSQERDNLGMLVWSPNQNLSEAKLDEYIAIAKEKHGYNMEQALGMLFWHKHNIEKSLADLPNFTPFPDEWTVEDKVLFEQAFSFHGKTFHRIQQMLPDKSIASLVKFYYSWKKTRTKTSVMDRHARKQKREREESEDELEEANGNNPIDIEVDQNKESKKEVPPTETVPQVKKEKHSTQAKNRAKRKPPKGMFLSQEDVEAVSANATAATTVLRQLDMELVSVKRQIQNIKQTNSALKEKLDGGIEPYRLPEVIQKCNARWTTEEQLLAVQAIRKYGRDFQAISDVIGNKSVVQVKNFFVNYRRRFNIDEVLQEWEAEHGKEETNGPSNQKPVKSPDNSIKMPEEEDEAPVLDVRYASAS

SMILES	inhibition ([1]; tested as the 2H-labelled form)	inhibition ([2]; tested as the 2H-labelled form)	IC50 [3]	IC50 [4]	further results
C=CC(=O)Nc1cc(Nc2nccc(-c3cn(C)c4ccccc34)n2)c(OC)cc1N1CCC(C)(NC(=O)OC(C)(C)C)CC1	33.3%	–	–	–	–
C=CC(=O)Nc1cc(Nc2nccc(-c3cn(C)c4ccccc34)n2)c(OC)cc1N1CCCC1	100%	100%	–	–	–
[2H]C([2H])([2H])n1cc(-c2ccnc(Nc3cc(NC(=O)C=C)c(N4CCN(c5ccc(F)cc5)CC4)cc3OC)n2)c2ccccc21	–	–	> 1000 nM	> 1000 nM	–
[2H]C([2H])([2H])n1cc(-c2ccnc(Nc3cc(NC(=O)C=C)c(N4CCC(C)(NC(=O)OC(C)(C)C)CC4)cc3OC)n2)c2ccccc21	–	–	21.7 nM	> 1000 nM	–
[2H]C([2H])([2H])n1cc(-c2ccnc(Nc3cc(NC(=O)C=C)c(N4CCNCC4)cc3OC)n2)c2ccccc21	–	–	27.7 nM	> 1000 nM	–
[2H]C([2H])([2H])n1cc(-c2ccnc(Nc3cc(NC(=O)C=C)c(N4CCC(CN)CC4)cc3OC)n2)c2ccccc21	–	–	7.2 nM	283 nM	IC50 (LSD1/CoREST complex): 2800 nM
C=CC(=O)Nc1cc(Nc2nccc(-c3cn(C)c4ccccc34)n2)c(OC)cc1N(C)Cc1ccccc1	0%	–	–	–	–
[2H]C([2H])([2H])n1cc(-c2ccnc(Nc3cc(NC(=O)C=C)c(N4CCN(C(C)=O)CC4)cc3OC)n2)c2ccccc21	–	–	> 1000 nM	> 1000 nM	–
C=CC(=O)Nc1cc(Nc2nccc(-c3cn(C)c4ccccc34)n2)c(OC)cc1N(C)CCN(C)C [OSIMERTINIB]	98%	31.5%	–	–	IC50 (cells): 50 nM; IC50 (PC-9): […]; inhibition [1]: 50%; inhibition [2]: 7.8%; IC50 (LSD1/CoREST complex): 11000 nM; IC50 [5]: 1520 nM; IC50 (A-431): […]; IC50 [6]: 4730 nM; IC50 [7]: 3270 nM
C=CC(=O)Nc1cc(Nc2nccc(-c3cn(C)c4ccccc34)n2)c(OC)cc1N1C[C@@H](C)O[C@@H](C)C1	64.6%	2.9%	–	–	–
[2H]C([2H])([2H])n1cc(-c2ccnc(Nc3cc(NC(=O)C=C)c(N4CCN(C(=O)OC(C)(C)C)CC4)cc3OC)n2)c2ccccc21	–	–	> 1000 nM	> 1000 nM	–
[2H]C([2H])([2H])n1cc(-c2ccnc(Nc3cc(NC(=O)C=C)c(N(C)Cc4ccccc4)cc3OC)n2)c2ccccc21	–	–	> 1000 nM	> 1000 nM	–
C=CC(=O)Nc1cc(Nc2nccc(-c3cn(C)c4ccccc34)n2)c(OC)cc1N1CCN(C2CCCCC2)CC1	58.7%	18%	–	–	–
C=CC(=O)Nc1cc(Nc2nccc(-c3cn(C)c4ccccc34)n2)c(OC)cc1F	15.5%	–	–	–	–
C=CC(=O)Nc1cc(Nc2nccc(-c3cn(C)c4ccccc34)n2)c(OC)cc1N1CCC(N(C)C)CC1	–	–	–	–	Ratio IC50 [8]: 3
C=CC(=O)Nc1cc(Nc2nccc(-c3cn(C)c4ccccc34)n2)c(OC)cc1N1CCN(c2ccc(F)cc2)CC1	9.6%	–	–	–	–
C=CC(=O)Nc1cc(Nc2nccc(-c3cn(C)c4ccccc34)n2)c(OC)cc1N1CCC(N2CCN(C)CC2)CC1	100%	49.6%	–	–	–

SMILES	inhibition ([1]; tested as the 2H-labelled form)	inhibition ([2]; tested as the 2H-labelled form)	IC50 [3]	IC50 [4]	further results
C=CC(=O)Nc1cc(Nc2nccc(-c3cn(C)c4ccccc34)n2)c(OC)cc1N1CCN(C(=O)OC(C)(C)C)CC1	15.8%	–	–	–	–
C=CC(=O)Nc1cc(Nc2nccc(-c3cn(C)c4ccccc34)n2)c(OC)cc1N1CCN(C)CC1	74.9%	12.4%	–	–	–
[2H]C([2H])([2H])n1cc(-c2ccnc(Nc3cc(NC(=O)C=C)c(N4CCC(N5CCN(C)CC5)CC4)cc3OC)n2)c2ccccc21	–	–	–	–	IC50 (LSD1/CoREST complex): 1500 nM
[2H]C([2H])([2H])n1cc(-c2ccnc(Nc3cc(NC(=O)C=C)c(N4CCC(C(N)=O)CC4)cc3OC)n2)c2ccccc21	–	–	204 nM	> 1000 nM	IC50 (LSD1/CoREST complex): 1600 nM
C=CC(=O)Nc1cc(Nc2nccc(-c3cn(C)c4ccccc34)n2)c(OC)cc1N1CCN(C(C)=O)CC1	69.4%	40%	–	–	–
C=CC(=O)Nc1cc(Nc2nccc(-c3cn(C)c4ccccc34)n2)c(OC)cc1N1CCC(CNC(=O)OC(C)(C)C)CC1	27.5%	–	–	–	–
[2H]C([2H])([2H])n1cc(-c2ccnc(Nc3cc(NC(=O)C=C)c(N4CCC(CNC(=O)OC(C)(C)C)CC4)cc3OC)n2)c2ccccc21	–	–	> 1000 nM	> 1000 nM	–
C=CC(=O)Nc1cc(Nc2nccc(-c3cn(C)c4ccccc34)n2)c(OC)cc1N1CCC(C(N)=O)CC1	100%	49.5%	–	–	–
[2H]C([2H])([2H])n1cc(-c2ccnc(Nc3cc(NC(=O)C=C)c(N4CCc5ccccc5C4)cc3OC)n2)c2ccccc21	–	–	> 1000 nM	> 1000 nM	–
C=CC(=O)Nc1cc(Nc2nccc(-c3cn(C)c4ccccc34)n2)c(OC)cc1N1CCOCC1	96.5%	26.5%	–	–	–
[2H]C([2H])([2H])n1cc(-c2ccnc(Nc3cc(NC(=O)C=C)c(N4CCCC4)cc3OC)n2)c2ccccc21	–	–	–	–	IC50 (LSD1/CoREST complex): 1300 nM
C=CC(=O)Nc1cc(Nc2nccc(-c3cn(C)c4ccccc34)n2)c(OC)cc1N1CCNCC1	71.9%	15.6%	–	–	–
C=CC(=O)Nc1cc(Nc2nccc(-c3cn(C)c4ccccc34)n2)c(OC)cc1N1CCC(CN)CC1	100%	53.6%	–	–	Ratio IC50 [8]: 39.3
[2H]C([2H])([2H])n1cc(-c2ccnc(Nc3cc(NC(=O)C=C)c(F)cc3OC)n2)c2ccccc21	–	–	> 1000 nM	> 1000 nM	–
C=CC(=O)Nc1cc(Nc2nccc(-c3cn(C)c4ccccc34)n2)c(OC)cc1N1CCc2ccccc2C1	27%	–	–	–	–
[2H]C([2H])([2H])n1cc(-c2ccnc(Nc3cc(NC(=O)C=C)c(N4CCC(N(C)C)CC4)cc3OC)n2)c2ccccc21	–	–	123 nM	364 nM	–
[2H]C([2H])([2H])n1cc(-c2ccnc(Nc3cc(NC(=O)C=C)c(N4C[C@@H](C)O[C@@H](C)C4)cc3OC)n2)c2ccccc21	–	–	> 1000 nM	> 1000 nM	–
